Tests used:
[1] = test system: carrageenin-induced paw inflammation; experiment: paw inflammation induced by carrageenin in mice; type: in vivo; settings: for Paw Swelling mm (M ± SD) at 3 hours / Paw Swelling mm (M ± SD) at 6 hours / anti-inflammatory effects compared with nimesulide (in words): mice; for Paw Swelling mm (M ± SD) at 3 hours / Paw Swelling mm (M ± SD) at 6 hours: orally administered; for Paw Swelling mm (M ± SD) at 3 hours: 0.243 mM/Kg; for Paw Swelling mm (M ± SD) at 6 hours: 0.485 mM/Kg; for anti-inflammatory effects relative to nimesulide (times stronger): 0.243 mM/kg vs nimesulide 0.243 mM/kg; for Paw Swelling mm (M ± SD) at 3 hours / anti-inflammatory effects relative to nimesulide (times stronger): at 3 hours; for anti-inflammatory effects compared with nimesulide (in words): oral
[2] = test system: acetate-induced body twisting; experiment: acetate-induced body twisting in mice (analgesic effect); settings: for analgesic effects compared with nimesulide (in words): oral
[3] = acute oral toxicity in mice; settings: orally administered
[4] = orally administered, 0.485 mM/Kg
[5] = orally administered, 0.97 mM/Kg

Molecule	Paw Swelling mm (M ± SD) at 3 hours [1] [mm]	Paw Swelling mm (M ± SD) at 6 hours [1] [mm]	No. of body-twisting (M ± SD) at 3 hours [2, 4]	No. of body-twistings (M ± SD) at 1 hour [2, 5]	No. of body-twisting (M ± SD) at 6 hours ([2]; orally administered, 0.97 (head: mg/Kg), at 6 hours)	anti-inflammatory effects relative to nimesulide (times stronger) [1]	anti-inflammatory effects compared with nimesulide (in words) [1]	LD50 value (95% C.L.) [3] [mg/kg]	toxicity relative to nimesulide (times lower) [3]	analgesic effects compared with nimesulide (in words) [2]	No. of body-twistings (M ± SD) at 1 hour [2, 4]
CS(=O)(=O)Nc1ccc([N+](=O)[O-])cc1Oc1ccccc1 [Nimesulide, nimesulide, reference compound]	2.10 ± 1.39	2.58 ± 1.20	11.1 ± 9.7	14.8 ± 11.7	21.00 ± 19.09						
COc1ccc(Oc2cc([N+](=O)[O-])ccc2NS(C)(=O)=O)cc1.C[C@H]1CC[C@H](N)CC1 [S9, 4-nitro-2-[(4′-methoxy)-phenoxy]-methanesulfonyl aniline, trans-4-methyl-cyclohexylamine salt]	1.18 ± 0.65		6.7 ± 6.2			2 times	significantly stronger than that of nimesulide	1223.3	about 2 times	significantly stronger than nimesulide	
4-nitro-2-[(4′-methoxy)-phenoxy]-methanesulfonyl aniline [S6]	0.58 ± 0.67	1.91 ± 0.66		10.8 ± 11.4		about 4 times	significantly stronger than that of nimesulide	2355.5	about 4 times	significantly stronger than nimesulide	11.4 ± 5.3

Reference: patent US20070060544A1, “4-Nitro-2-[(4'-methoxy)-phenoxy]-methanesulfonanilide derivatives and their pharmaceutical use” (priority 2002, published 2007)
